Test results from ChEMBL document CHEMBL4507264, “Data for DCP probe BAY-7598” (2021).

Experiments:
[1] = biological target: Tyrosine-protein kinase SYK (Homo sapiens) (UniProt P43405); conditions: Compound concentration 1000.0 nM
[2] = biological target: Aurora kinase B (Homo sapiens) (UniProt Q96GD4); conditions: Compound concentration 1000.0 nM
[3] = biological target: Cyclin-dependent kinase 4 (Homo sapiens) (UniProt P11802); conditions: Compound concentration 1000.0 nM
[4] = biological target: Ephrin type-B receptor 6 (Homo sapiens) (UniProt O15197); conditions: Compound concentration 1000.0 nM
[5] = biological target: Sodium-dependent noradrenaline transporter (Homo sapiens) (UniProt P23975); conditions: Compound concentration 10.0 uM
[6] = biological target: Mitogen-activated protein kinase 7 (Homo sapiens) (UniProt Q13164); conditions: Compound concentration 1000.0 nM
[7] = biological target: D(3) dopamine receptor (Homo sapiens) (UniProt P35462); conditions: Compound concentration 10.0 uM
[8] = biological target: SRSF protein kinase 3 (Homo sapiens) (UniProt Q9UPE1); conditions: Compound concentration 1000.0 nM
[9] = biological target: Serine/threonine-protein kinase PLK3 (Homo sapiens) (UniProt Q9H4B4); conditions: Compound concentration 1000.0 nM
[10] = biological target: Serine/threonine-protein kinase 16 (Homo sapiens) (UniProt O75716); conditions: Compound concentration 1000.0 nM
[11] = biological target: D(1B) dopamine receptor (Homo sapiens) (UniProt P21918); conditions: Compound concentration 10.0 uM
[12] = biological target: Muscarinic acetylcholine receptor M5 (Homo sapiens) (UniProt P08912); conditions: Compound concentration 10.0 uM
[13] = tested on: Epidermal growth factor receptor (Homo sapiens), P00533 [UNDEFINED MUTATION]; conditions: Compound concentration 1000.0 nM
[14] = biological target: Serine/threonine-protein kinase SIK3 (Homo sapiens) (UniProt Q9Y2K2); conditions: Compound concentration 1000.0 nM
[15] = biological target: Homeodomain-interacting protein kinase 1 (Homo sapiens) (UniProt Q86Z02); conditions: Compound concentration 1000.0 nM
[16] = biological target: Activin receptor type-1-like (Homo sapiens) (UniProt P37023); conditions: Compound concentration 1000.0 nM
[17] = biological target: Tyrosine-protein kinase FRK (Homo sapiens) (UniProt P42685); conditions: Compound concentration 1000.0 nM
[18] = tested on: ALK tyrosine kinase receptor (Homo sapiens), Q9UM73 [L1196M]; conditions: Compound concentration 1000.0 nM
[19] = biological target: D(1A) dopamine receptor (Homo sapiens) (UniProt P21728); conditions: Compound concentration 10.0 uM
[20] = biological target: Ribosomal protein S6 kinase alpha-1 (Homo sapiens) (UniProt Q15418); conditions: Compound concentration 1000.0 nM
[21] = biological target: Serine/threonine-protein kinase TNNI3K (Homo sapiens) (UniProt Q59H18); conditions: Compound concentration 1000.0 nM
[22] = biological target: SRSF protein kinase 1 (Homo sapiens) (UniProt Q96SB4); conditions: Compound concentration 1000.0 nM
[23] = biological target: Mitogen-activated protein kinase kinase kinase kinase 1 (Homo sapiens) (UniProt Q92918); conditions: Compound concentration 1000.0 nM
[24] = biological target: Fibroblast growth factor receptor 3 (Homo sapiens) (UniProt P22607); conditions: Compound concentration 1000.0 nM
[25] = tested on: Mast/stem cell growth factor receptor Kit (Homo sapiens), P10721 [V559D,V654A]; conditions: Compound concentration 1000.0 nM
[26] = biological target: Serine/threonine-protein kinase DCLK3 (Homo sapiens) (UniProt Q9C098); conditions: Compound concentration 1000.0 nM
[27] = biological target: Hepatocyte growth factor receptor (Homo sapiens) (UniProt P08581); conditions: Compound concentration 1000.0 nM
[28] = biological target: TRAF2 and NCK-interacting protein kinase (Homo sapiens) (UniProt Q9UKE5); conditions: Compound concentration 1000.0 nM
[29] = tested on: Epidermal growth factor receptor (Homo sapiens), P00533 [UNDEFINED MUTATION]; conditions: Compound concentration 1000.0 nM; remark: listed apart in the source
[30] = biological target: Serine/threonine-protein kinase PAK 3 (Homo sapiens) (UniProt O75914); conditions: Compound concentration 1000.0 nM
[31] = biological target: Testis-specific serine/threonine-protein kinase 1 (Homo sapiens) (UniProt Q9BXA7); conditions: Compound concentration 1000.0 nM
[32] = tested on: Receptor-type tyrosine-protein kinase FLT3 (Homo sapiens), P36888 [N841I]; conditions: Compound concentration 1000.0 nM
[33] = biological target: Serine/threonine-protein kinase VRK2 (Homo sapiens) (UniProt Q86Y07); conditions: Compound concentration 1000.0 nM
[34] = biological target: Cyclin-dependent kinase 16 (Homo sapiens) (UniProt Q00536); conditions: Compound concentration 1000.0 nM
[35] = biological target: Tyrosine-protein kinase ITK/TSK (Homo sapiens) (UniProt Q08881); conditions: Compound concentration 1000.0 nM
[36] = biological target: Tyrosine-protein kinase Srms (Homo sapiens) (UniProt Q9H3Y6); conditions: Compound concentration 1000.0 nM
[37] = biological target: Casein kinase II subunit alpha' (Homo sapiens) (UniProt P19784); conditions: Compound concentration 1000.0 nM
[38] = biological target: Mitogen-activated protein kinase kinase kinase 12 (Homo sapiens) (UniProt Q12852); conditions: Compound concentration 1000.0 nM
[39] = biological target: Serine/threonine-protein kinase MRCK beta (Homo sapiens) (UniProt Q9Y5S2); conditions: Compound concentration 1000.0 nM
[40] = tested on: Epidermal growth factor receptor (Homo sapiens), P00533 [G719S]; conditions: Compound concentration 1000.0 nM
[41] = biological target: RAC-beta serine/threonine-protein kinase (Homo sapiens) (UniProt P31751); conditions: Compound concentration 1000.0 nM
[42] = biological target: Tyrosine-protein kinase ABL1 (Homo sapiens) (UniProt P00519); conditions: Compound concentration 1000.0 nM
[43] = biological target: Phosphorylase b kinase regulatory subunit alpha, liver isoform (Homo sapiens) (UniProt P46019); conditions: Compound concentration 1000.0 nM
[44] = biological target: NUAK family SNF1-like kinase 1 (Homo sapiens) (UniProt O60285); conditions: Compound concentration 1000.0 nM
[45] = biological target: Activin receptor type-2B (Homo sapiens) (UniProt Q13705); conditions: Compound concentration 1000.0 nM
Rattus norvegicus = species: Rattus norvegicus; conditions: Compound concentration 10.0 uM

Chain of Cyclin-dependent kinase 4 (Homo sapiens) (P11802 whole entry): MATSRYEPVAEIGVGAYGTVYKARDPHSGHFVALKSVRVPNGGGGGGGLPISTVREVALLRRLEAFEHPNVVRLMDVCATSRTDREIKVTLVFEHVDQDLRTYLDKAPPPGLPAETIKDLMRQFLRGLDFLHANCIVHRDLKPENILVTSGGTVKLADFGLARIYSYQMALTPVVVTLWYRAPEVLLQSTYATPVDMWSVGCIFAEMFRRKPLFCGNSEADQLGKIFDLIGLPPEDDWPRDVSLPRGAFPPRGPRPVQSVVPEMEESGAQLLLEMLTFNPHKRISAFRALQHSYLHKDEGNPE
Chain of Serine/threonine-protein kinase VRK2 (Homo sapiens) (Q86Y07 whole entry): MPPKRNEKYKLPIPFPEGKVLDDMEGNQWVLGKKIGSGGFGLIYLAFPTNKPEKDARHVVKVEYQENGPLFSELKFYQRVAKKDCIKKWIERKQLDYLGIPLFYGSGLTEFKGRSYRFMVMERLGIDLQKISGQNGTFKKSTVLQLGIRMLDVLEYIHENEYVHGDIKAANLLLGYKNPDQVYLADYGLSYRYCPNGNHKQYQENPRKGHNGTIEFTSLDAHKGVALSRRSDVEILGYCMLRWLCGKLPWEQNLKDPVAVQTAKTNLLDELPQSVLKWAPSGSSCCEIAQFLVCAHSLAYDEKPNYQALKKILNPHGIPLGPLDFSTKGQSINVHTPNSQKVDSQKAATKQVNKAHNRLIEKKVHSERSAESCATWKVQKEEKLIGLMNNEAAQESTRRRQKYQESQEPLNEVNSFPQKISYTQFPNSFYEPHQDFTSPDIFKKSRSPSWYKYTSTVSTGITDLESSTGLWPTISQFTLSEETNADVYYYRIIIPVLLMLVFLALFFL
Chain of RAC-beta serine/threonine-protein kinase (Homo sapiens) (P31751 whole entry): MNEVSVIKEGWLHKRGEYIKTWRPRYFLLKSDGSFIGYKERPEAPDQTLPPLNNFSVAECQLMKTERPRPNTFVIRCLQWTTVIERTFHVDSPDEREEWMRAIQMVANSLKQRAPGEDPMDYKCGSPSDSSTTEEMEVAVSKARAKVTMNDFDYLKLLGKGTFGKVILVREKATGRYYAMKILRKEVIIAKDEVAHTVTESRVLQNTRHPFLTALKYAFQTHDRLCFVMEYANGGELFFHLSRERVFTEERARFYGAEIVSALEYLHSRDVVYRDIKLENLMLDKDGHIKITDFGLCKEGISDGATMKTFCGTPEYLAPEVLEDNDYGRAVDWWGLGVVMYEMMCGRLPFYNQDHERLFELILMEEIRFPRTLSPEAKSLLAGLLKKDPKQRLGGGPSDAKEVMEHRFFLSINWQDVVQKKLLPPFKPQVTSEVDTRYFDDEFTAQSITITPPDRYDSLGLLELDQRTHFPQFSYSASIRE
Chain of Homeodomain-interacting protein kinase 1 (Homo sapiens) (Q86Z02 whole entry, looked up): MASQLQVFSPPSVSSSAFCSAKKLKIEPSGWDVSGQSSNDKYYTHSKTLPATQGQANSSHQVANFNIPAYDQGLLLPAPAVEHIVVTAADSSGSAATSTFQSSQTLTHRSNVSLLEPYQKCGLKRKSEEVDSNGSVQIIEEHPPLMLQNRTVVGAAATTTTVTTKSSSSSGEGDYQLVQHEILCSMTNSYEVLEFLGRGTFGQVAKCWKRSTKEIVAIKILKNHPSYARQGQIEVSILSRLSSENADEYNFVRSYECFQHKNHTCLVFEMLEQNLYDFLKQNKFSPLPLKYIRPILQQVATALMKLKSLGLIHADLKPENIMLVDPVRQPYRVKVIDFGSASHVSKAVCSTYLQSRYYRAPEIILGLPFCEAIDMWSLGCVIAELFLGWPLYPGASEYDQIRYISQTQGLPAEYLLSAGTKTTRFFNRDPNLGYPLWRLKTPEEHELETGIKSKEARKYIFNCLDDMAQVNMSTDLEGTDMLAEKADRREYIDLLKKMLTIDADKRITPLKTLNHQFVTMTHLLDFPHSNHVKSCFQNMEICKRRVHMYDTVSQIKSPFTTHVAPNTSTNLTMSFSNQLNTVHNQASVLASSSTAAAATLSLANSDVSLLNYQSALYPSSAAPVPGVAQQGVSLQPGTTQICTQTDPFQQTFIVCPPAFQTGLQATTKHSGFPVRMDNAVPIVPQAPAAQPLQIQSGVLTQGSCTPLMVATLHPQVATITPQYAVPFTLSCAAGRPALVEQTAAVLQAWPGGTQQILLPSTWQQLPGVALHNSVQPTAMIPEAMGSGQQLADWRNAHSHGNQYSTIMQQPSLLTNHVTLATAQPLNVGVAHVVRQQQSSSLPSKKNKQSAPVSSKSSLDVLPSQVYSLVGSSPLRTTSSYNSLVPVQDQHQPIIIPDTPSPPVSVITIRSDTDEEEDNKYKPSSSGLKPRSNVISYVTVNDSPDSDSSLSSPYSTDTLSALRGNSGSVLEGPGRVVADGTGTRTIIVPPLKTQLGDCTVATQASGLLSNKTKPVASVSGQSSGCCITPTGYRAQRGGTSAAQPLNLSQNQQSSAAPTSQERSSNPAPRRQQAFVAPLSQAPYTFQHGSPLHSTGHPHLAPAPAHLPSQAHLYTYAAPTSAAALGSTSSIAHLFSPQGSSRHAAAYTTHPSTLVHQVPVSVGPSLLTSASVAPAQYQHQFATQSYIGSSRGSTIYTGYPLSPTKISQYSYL
Chain of Tyrosine-protein kinase FRK (Homo sapiens) (P42685 whole entry): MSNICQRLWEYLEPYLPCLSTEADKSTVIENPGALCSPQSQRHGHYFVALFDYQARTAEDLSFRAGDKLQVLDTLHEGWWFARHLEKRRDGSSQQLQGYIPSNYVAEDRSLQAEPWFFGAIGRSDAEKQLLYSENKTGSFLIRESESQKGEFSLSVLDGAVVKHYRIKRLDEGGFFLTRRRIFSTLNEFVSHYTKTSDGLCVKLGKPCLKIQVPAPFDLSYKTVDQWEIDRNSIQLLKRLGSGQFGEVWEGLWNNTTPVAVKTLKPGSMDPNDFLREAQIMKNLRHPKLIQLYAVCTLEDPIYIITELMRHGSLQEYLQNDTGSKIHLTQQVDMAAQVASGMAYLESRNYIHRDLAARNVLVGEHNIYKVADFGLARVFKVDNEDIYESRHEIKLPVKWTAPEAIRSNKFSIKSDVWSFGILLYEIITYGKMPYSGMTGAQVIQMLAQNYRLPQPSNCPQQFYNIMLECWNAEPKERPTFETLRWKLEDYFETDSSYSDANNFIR
Chain of Fibroblast growth factor receptor 3 (Homo sapiens) (P22607 23-806 limits assumed): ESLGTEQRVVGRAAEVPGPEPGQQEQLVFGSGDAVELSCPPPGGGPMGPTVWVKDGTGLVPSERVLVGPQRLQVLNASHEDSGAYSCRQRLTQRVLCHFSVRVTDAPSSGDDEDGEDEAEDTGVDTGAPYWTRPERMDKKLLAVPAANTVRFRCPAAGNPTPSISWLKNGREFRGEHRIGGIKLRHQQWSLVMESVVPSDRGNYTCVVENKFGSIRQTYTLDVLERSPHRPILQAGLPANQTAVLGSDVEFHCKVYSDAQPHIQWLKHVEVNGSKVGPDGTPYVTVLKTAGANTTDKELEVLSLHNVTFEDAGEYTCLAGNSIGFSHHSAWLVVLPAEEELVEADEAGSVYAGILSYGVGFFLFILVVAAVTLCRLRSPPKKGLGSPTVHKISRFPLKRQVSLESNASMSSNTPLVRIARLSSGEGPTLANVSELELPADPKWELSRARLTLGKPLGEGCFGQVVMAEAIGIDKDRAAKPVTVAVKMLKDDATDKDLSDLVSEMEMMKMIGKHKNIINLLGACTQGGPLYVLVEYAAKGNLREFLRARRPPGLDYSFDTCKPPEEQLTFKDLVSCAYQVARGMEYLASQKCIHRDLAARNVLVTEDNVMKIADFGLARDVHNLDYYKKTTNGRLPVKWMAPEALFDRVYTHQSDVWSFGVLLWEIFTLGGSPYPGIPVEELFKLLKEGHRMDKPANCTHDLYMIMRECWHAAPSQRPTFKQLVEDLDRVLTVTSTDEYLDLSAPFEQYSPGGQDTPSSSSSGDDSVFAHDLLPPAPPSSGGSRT
Chain of D(1B) dopamine receptor (Homo sapiens) (P21918 whole entry): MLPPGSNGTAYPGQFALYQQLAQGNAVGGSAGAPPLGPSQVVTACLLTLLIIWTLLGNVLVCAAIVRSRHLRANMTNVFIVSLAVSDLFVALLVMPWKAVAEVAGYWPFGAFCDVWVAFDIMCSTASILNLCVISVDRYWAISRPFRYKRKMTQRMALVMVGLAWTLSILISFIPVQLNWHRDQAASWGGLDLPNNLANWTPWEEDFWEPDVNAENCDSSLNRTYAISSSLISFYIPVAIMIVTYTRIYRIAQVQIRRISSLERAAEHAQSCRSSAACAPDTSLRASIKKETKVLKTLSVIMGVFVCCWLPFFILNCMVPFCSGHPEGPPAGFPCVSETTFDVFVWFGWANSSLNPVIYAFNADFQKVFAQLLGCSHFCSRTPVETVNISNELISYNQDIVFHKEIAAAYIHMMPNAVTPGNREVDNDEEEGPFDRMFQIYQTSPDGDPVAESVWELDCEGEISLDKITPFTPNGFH
Chain of Ribosomal protein S6 kinase alpha-1 (Homo sapiens) (Q15418 whole entry): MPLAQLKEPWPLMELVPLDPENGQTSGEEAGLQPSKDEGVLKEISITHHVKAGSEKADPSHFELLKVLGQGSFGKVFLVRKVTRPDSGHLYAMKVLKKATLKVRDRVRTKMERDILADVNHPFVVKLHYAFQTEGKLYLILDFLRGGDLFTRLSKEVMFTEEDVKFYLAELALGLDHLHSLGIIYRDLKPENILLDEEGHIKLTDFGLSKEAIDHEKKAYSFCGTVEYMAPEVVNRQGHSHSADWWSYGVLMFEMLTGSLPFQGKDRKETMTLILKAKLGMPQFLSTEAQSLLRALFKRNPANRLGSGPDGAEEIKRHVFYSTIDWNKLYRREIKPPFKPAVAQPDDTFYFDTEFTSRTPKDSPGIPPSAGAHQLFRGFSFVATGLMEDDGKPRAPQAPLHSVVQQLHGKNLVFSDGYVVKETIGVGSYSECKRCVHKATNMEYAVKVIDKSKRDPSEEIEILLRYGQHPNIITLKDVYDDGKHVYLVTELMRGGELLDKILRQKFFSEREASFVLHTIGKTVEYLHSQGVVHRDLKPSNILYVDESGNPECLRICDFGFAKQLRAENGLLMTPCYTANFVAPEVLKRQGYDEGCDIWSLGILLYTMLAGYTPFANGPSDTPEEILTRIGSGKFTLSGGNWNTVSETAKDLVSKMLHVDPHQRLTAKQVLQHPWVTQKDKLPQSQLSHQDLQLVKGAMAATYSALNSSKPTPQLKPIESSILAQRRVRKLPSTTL

O=C(O)[C@H]1[C@H](Cn2nnc3ccccc3c2=O)CC[C@@H]1C(=O)c1ccc(OCCC2CCOCC2)cc1 [BAY-7598]
inactive: residual activity [1] 76% | residual activity [2] 100% | residual activity [3] 89% | residual activity [4] 89% | inhibition [5] -0.42% | residual activity [6] 100% | inhibition [7] 7.27% | residual activity [8] 84% | residual activity [9] 100% | residual activity [10] 85% | inhibition [11] 7.53% | inhibition [12] 4.3% | residual activity [13] 76% | residual activity [14] 61% | residual activity [15] 100% | residual activity [16] 85% | residual activity [17] 100% | residual activity [18] 81% | inhibition [19] 1.16% | residual activity [20] 90% | residual activity [21] 100% | residual activity [22] 79% | residual activity [23] 87% | residual activity [24] 100% | residual activity [25] 100% | residual activity [26] 98% | residual activity [27] 94% | residual activity [28] 84% | residual activity [29] 100% | residual activity [30] 86% | residual activity [31] 73% | residual activity [32] 85% | residual activity [33] 80% | residual activity [34] 98% | residual activity [35] 100% | residual activity [36] 100% | residual activity [37] 79% | residual activity [38] 88% | residual activity [39] 100% | residual activity [40] 87% | residual activity [41] 88% | residual activity [42] 80% | residual activity [43] 100% | residual activity [44] 71% | residual activity [45] 79% | inhibition (Rattus norvegicus) 9.67%

O=C(O)[C@@H]1[C@@H](Cn2nnc3ccccc3c2=O)CC[C@H]1C(=O)c1ccc(OCCC2CCOCC2)cc1 [BAY-694]
inactive: residual activity [1] 100% | residual activity [2] 100% | residual activity [3] 83% | residual activity [4] 100% | inhibition [5] -7.25% | residual activity [6] 100% | inhibition [7] -4.94% | residual activity [8] 100% | residual activity [9] 87% | residual activity [10] 89% | inhibition [11] 19.6% | inhibition [12] 1.82% | residual activity [13] 87% | residual activity [14] 84% | residual activity [15] 91% | residual activity [16] 97% | residual activity [17] 89% | residual activity [18] 93% | inhibition [19] 4.76% | residual activity [20] 100% | residual activity [21] 94% | residual activity [22] 100% | residual activity [23] 91% | residual activity [24] 100% | residual activity [25] 94% | residual activity [26] 100% | residual activity [27] 100% | residual activity [28] 93% | residual activity [29] 100% | residual activity [30] 99% | residual activity [31] 100% | residual activity [32] 98% | residual activity [33] 80% | residual activity [34] 100% | residual activity [35] 87% | residual activity [36] 100% | residual activity [37] 88% | residual activity [38] 98% | residual activity [39] 96% | residual activity [40] 88% | residual activity [41] 100% | residual activity [42] 95% | residual activity [43] 100% | residual activity [44] 84% | residual activity [45] 100% | inhibition (Rattus norvegicus) 13.4%
